Source: patent US9751861B2, “N1-(3,3,3-trifluoro-2-hydroxo-2-methylpropionyl)-piperidine derivatives as inhibitors of pyruvate dehydrogenase kinase” (MERCK PATENT GMBH, priority 2013, dated 2017)

Experiments:
[1] = biological target: T1, PDHK2 (Homo sapiens, UniProt Q15119); test: Biochemical activity testing of PDHK2: PDC inactivation assay; conditions: human rec PDHK2, PDC from porcine heart, ATP 5 μM; read-out: IC50 PDHK2 (enzyme assay)
T1 construct: purchased Carna Bioscience
Outline: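 Human recombinant PDHK2 (137 nM final) preincubated 30 min at RT with porcine heart PDC (20 mU/ml) and compound in pH 7.0 phosphate buffer, then phosphorylated with 5 μM ATP for 30 min at 37 °C. Residual PDC activity read as NADH fluorescence increase (Ex 340/Em 450) over 45 min; inhibitor-free reaction as full value, 3 mM DCA as zero, IC50 derived.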

[2] = biological target: T2, human PDHK2 (12-407) (Homo sapiens, UniProt Q15119); test: Isothermal titration calorimetry (ITC) binding; conditions: 30° C., pH 7.5
T2 construct: The human PDHK2 (12-407) was produced in E. coli; His-tag (cleaved yes); made in house; host or cells: E. coli
Outline: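 Untagged PDHK2 (12-407) from E. coli at 50 μM titrated into 5 μM compound at 30° C in pH 7.5 HEPES/KCl/MgCl2/phosphate buffer, ≤1% DMSO. One-site fit gave KA, ΔH^obs and N after heat-of-dilution correction; protein concentration referenced to a standard inhibitor and compound concentration adjusted to 1:1 stoichiometry.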

[3] = test system: PDH-Elalpha (pSer300); test: Cellular immunofluorescence assay in HEK293T cells; format: cell-based; conditions: Homo sapiens, HEK-293T, 5 hours incubation, anti-PDH-E1alpha pSer300 immunofluorescence, read-out: IC50 (cell data)
Experimental: Cellular Assay for Determination of Compound Activities
Compound activities were determined in a cellular immunofluorescence assay. Human HEK293T cells were seeded into black 384-well plates with clear bottom and grown overnight.
Next day, test compounds were added to the wells and the plates incubated for 5 hours. Following this, cells were fixed with formaldehyde, permeabilised and blocked. The primary antibody, Anti-PDH-Elalpha (pSer300), AP1064 (Merck Millipore) was added and incubated overnight in the plate wells. Next, cells were washed and the seconday antibody, Alexa Fluor 488, goat anti-rabbit ab (A-11008, Invitrogen) was added together with Hoechst 33258 (H3569, Invitrogen) and incubated for 1 hour in the plate wells. Finally, cells were washed and the plates were measured on the laser scanning cytometer acumen hci (TTpLabtech).
The raw data were normalized against a pharmacological inhibitor control and dose response curves were generated by plotting the percent effect values using the software package Genedata screener (Genedata).

| IC50 [1] [nM] | Kd [2] [nM] | IC50 [3] [nM] | SMILES |
| --- | --- | --- | --- |
| 300 to 3000 | < 300 | 300 to 3000 | COc1ccc(-n2nccc2C2CCN(C(=O)[C@@](C)(O)C(F)(F)F)CC2)cn1 [Compound A53, (R)-3,3,3-Trifluoro-2-hydroxy-1-{4-[2-(6-methoxy-pyridin-3-yl)-2H-pyrazol-3-yl]-piperidin-1-yl}-2-methyl-propan-1-one] |
| < 300 | < 300 | 300 to 3000 | Cc1ccc(-n2nccc2C2CCN(C(=O)[C@@](C)(O)C(F)(F)F)CC2)cc1 [Compound A1, (R)-3,3,3-trifluoro-2-hydroxy-2-methyl-1-[4-(2-p-tolyl-2H-pyrazol-3-yl)-piperidin-1-yl]-propan-1-one] |
| < 300 | < 300 | 300 to 3000 | C[C@@H]1CN(C(=O)[C@@](C)(O)C(F)(F)F)CC[C@@H]1c1ccnn1-c1ccc(F)cn1 [Compound A118, (R)-3,3,3-Trifluoro-1-{(3S,4S)-4-[2-(5-fluoro-pyridin-2-yl)-2H-pyrazol-3-yl]-3-methyl-piperidin-1-yl}-2-hydroxy-2-methyl-propan-1-one] |
| 300 to 3000 | < 300 | 300 to 3000 | CC(C)(C)n1nccc1C1CCN(C(=O)[C@@](C)(O)C(F)(F)F)CC1 [Compound A17, (R)-1-[4-(2-tert-Butyl-2H-pyrazol-3-yl)-piperidin-1-yl]-3,3,3-trifluoro-2-hydroxy-2-methyl-propan-1-one] |
| < 300 | < 300 | 300 to 3000 | C[C@@](O)(C(=O)N1CCC(c2ccnn2-c2ccc(Cl)cc2)CC1)C(F)(F)F [Compound A13, (R)-1-{4-[2-(4-Chloro-phenyl)-2H-pyrazol-3-yl]-piperidin-1-yl}-3,3,3-trifluoro-2-hydroxy-2-methyl-propan-1-one] |
| < 300 | < 300 | < 300 | C[C@@H]1CN(C(=O)[C@@](C)(O)C(F)(F)F)CC[C@@H]1c1ccnn1-c1ccc(Cl)cc1 [Compound A119, (R)-1-{(3S,4S)-4-[2-(4-Chloro-phenyl)-2H-pyrazol-3-yl]-3-methyl-piperidin-1-yl}-3,3,3-trifluoro-2-hydroxy-2-methyl-propan-1-one] |
| < 300 | < 300 | < 300 | C[C@@H]1CN(C(=O)[C@@](C)(O)C(F)(F)F)CC[C@@H]1c1ccnn1-c1ccc(F)cc1 [Compound A107, (R)-3,3,3-Trifluoro-1-{(3S,4S)-4-[2-(4-fluoro-phenyl)-2H-pyrazol-3-yl]-3-methyl-piperidin-1-yl}-2-hydroxy-2-methyl-propan-1-one] |
| 300 to 3000 | < 300 | 300 to 3000 | C[C@@](O)(C(=O)N1CCC(c2ccnn2Cc2ccccc2)CC1)C(F)(F)F [Compound A38, (R)-1-[4-(2-Benzyl-2H-pyrazol-3-yl)-piperidin-1-yl]-3,3,3-trifluoro-2-hydroxy-2-methyl-propan-1-one] |
| 300 to 3000 | < 300 | 300 to 3000 | CC(C)(C)c1ccc(-n2nccc2C2CCN(C(=O)[C@@](C)(O)C(F)(F)F)CC2)cc1 [Compound A21, (R)-1-{4-[2-(4-tert-Butyl-phenyl)-2H-pyrazol-3-yl]-piperidin-1-yl}-3,3,3-trifluoro-2-hydroxy-2-methyl-propan-1-one] |
| 300 to 3000 | < 300 | 300 to 3000 | C[C@@](O)(C(=O)N1CCC(c2ccnn2-c2ccccc2)CC1)C(F)(F)F [Compound A25, (R)-3,3,3-Trifluoro-2-hydroxy-2-methyl-1-[4-(2-phenyl-2H-pyrazol-3-yl)piperidin-1-yl]-propan-1-one] |
| 300 to 3000 | < 300 | 300 to 3000 | C[C@@](O)(C(=O)N1CCC(c2cncn2-c2ccc(Cl)cc2)CC1)C(F)(F)F [Compound A125, (R)-1-{4-[3-(4-Chloro-phenyl)-3H-imidazol-4-yl]-piperidin-1-yl}-3,3,3-trifluoro-2-hydroxy-2-methyl-propan-1-one] |
| 300 to 3000 | < 300 | 300 to 3000 | C[C@@](O)(C(=O)N1CCC(c2ccnn2-c2ccc(Cl)c(Cl)c2)CC1)C(F)(F)F [Compound A101, (R)-1-{4-[2-(3,4-Dichloro-phenyl)-2H-pyrazol-3-yl]-piperidin-1-yl}-3,3,3-trifluoro-2-hydroxy-2-methyl-propan-1-one] |
| 300 to 3000 | < 300 | 300 to 3000 | C[C@@](O)(C(=O)N1CCC(c2ccnn2-c2ncc(Br)cn2)CC1)C(F)(F)F [Compound A19, (R)-1-{4-[2-(5-Bromo-pyrimidin-2-yl)-2H-pyrazol-3-yl]-piperidin-1-yl}-3,3,3-trifluoro-2-hydroxy-2-methyl-propan-1-one] |
| 300 to 3000 | < 300 | 3000 to 50000 | C[C@@](O)(C(=O)N1CCC(c2ccnn2C2CCCCC2)CC1)C(F)(F)F [Compound A37, (R)-1-[4-(2-Cyclohexyl-2H-pyrazol-3-yl)-piperidin-1-yl]-3,3,3-trifluoro-2-hydroxy-2-methyl-propan-1-one] |
| 300 to 3000 | < 300 | 3000 to 50000 | C[C@@](O)(C(=O)N1CCC(n2cncc2-c2ccccc2)CC1)C(F)(F)F [Compound A63, (2R)-3,3,3-trifluoro-2-hydroxy-2-methyl-1-[4-(5-phenylimidazol-1-yl)-1-piperidyl]propan-1-one] |
| < 300 | < 300 | 300 to 3000 | C[C@@](O)(C(=O)N1CCC(c2ccnn2-c2ccc(F)cc2Cl)CC1)C(F)(F)F [Compound A39, (R)-1-{4-[2-(2-Chloro-4-fluoro-phenyl)-2H-pyrazol-3-yl]-piperidin-1-yl}-3,3,3-trifluoro-2-hydroxy-2-methyl-propan-1-one] |
| < 300 | < 300 | 300 to 3000 | Cc1cc(C2CCN(C(=O)[C@@](C)(O)C(F)(F)F)CC2)n(-c2ccc(F)cc2F)n1 [Compound A97, (R)-1-{4-[2-(2,4-Difluoro-phenyl)-5-methyl-2H-pyrazol-3-yl]-piperidin-1-yl}-3,3,3-trifluoro-2-hydroxy-2-methyl-propan-1-one] |
| < 300 | < 300 | 300 to 3000 | Cc1ccc(-n2nccc2C2CCN(C(=O)[C@@](C)(O)C(F)(F)F)CC2)c(F)c1 [Compound A16, (R)-3,3,3-Trifluoro-1-{4-[2-(2-fluoro-4-methyl-phenyl)-2H-pyrazol-3-yl]-piperidin-1-yl}-2-hydroxy-2-methyl-propan-1-one] |
| 300 to 3000 | < 300 | 300 to 3000 | C[C@@](O)(C(=O)N1CCC(c2cc(C(F)(F)F)nn2-c2ccc(F)cc2)CC1)C(F)(F)F [Compound A42, (R)-1-{4-[2-(4-Fluoro-phenyl)-5-trifluoromethyl-2H-pyrazol-3-yl]-piperidin-1-yl}-3,3,3-trifluoro-2-hydroxy-2-methyl-propan-1-one] |
| 300 to 3000 | < 300 | 3000 to 50000 | C[C@@](O)(C(=O)N1CCC(c2ccnn2-c2ccc(C#N)cc2F)CC1)C(F)(F)F [Compound A91, 3-Fluoro-4-[5-[1-[(R)-3,3,3-trifuoro-2-hydroxy-2-methyl-propanoyl]-4-piperidyl]-2H-pyrazol-1-yl]benzonitrile] |
| 300 to 3000 | < 300 | 3000 to 50000 | CC(C)n1nccc1C1CCN(C(=O)[C@@](C)(O)C(F)(F)F)CC1 [Compound A36, (R)-1-[4-(2-Isopropyl-2H-pyrazol-3-yl)-piperidin-1-yl]-3,3,3-trifluoro-2-hydroxy-2-methyl-propan-1-one] |
| 300 to 3000 | < 300 | 3000 to 50000 | C[C@@](O)(C(=O)N1CCC(c2conc2-c2ccc(F)cc2)CC1)C(F)(F)F [Compound A129, (R)-3,3,3-Trifluoro-1-{^4-[3-(4-fluoro-phenyl)-isoxazol-4-yl]-piperidin-1-yl}-2-hydroxy-2-methyl-propan-1-one] |
| < 300 | < 300 | 300 to 3000 | COc1ccc(-n2nccc2C2CCN(C(=O)C(C)(O)C(F)(F)F)CC2)c(F)c1 (racemic) [Compound A30, rac-3,3,3-Trifluoro-1-{4-[2-(2-fluoro-4-methoxy-phenyl)-2H-pyrazol-3-yl]-piperidin-1-yl}-2-hydroxy-2-methyl-propan-1-one] |
| 300 to 3000 | < 300 | 300 to 3000 | CC(C)c1ccc(-n2nccc2C2CCN(C(=O)[C@@](C)(O)C(F)(F)F)CC2)cc1 [Compound A22, (R)-3,3,3-Trifluoro-2-hydroxy-1-{4-[2-(4-isopropyl-phenyl)-2H-pyrazol-3-yl]-piperidin-1-yl}-2-methyl-propan-1-one] |
